From PMC10698186 (Nature Communications, 2023) come the findings set out here.

Entries after “also recorded” stand apart in the source; their conditions may differ.

A short description of data set [1]: fresh serum. The conditions noted are these: Male BALB/c mice, 37 °C, up to 20 hours (table); 21 h (methods).
Data set [2] can be described thus: PBS. The conditions noted are these: 95 °C, up to 1 hour.
Data set [3] is described as follows: 10 mM cysteine in PBS. Conditions: 95 °C, up to 1 hour.
Data set [4] can be described thus: mouse plasma. The conditions noted are these: Male BALB/c mice, 37 °C, up to 144 h.
A short description of data set [5]: 20 mM glutathione, PBS (pH 7.4). The conditions noted are these: 37 °C, up to 22 h.
In data set [6] the test system is CHO, MCF7, SK-BR-3 cells. Put plainly: Cell viability, all cell lines of Supplementary Fig. 38. It is filed as cell-based. Conditions: 96 h, CellTiter Glo. The protocol:
(§1) Cells were seeded in a 96-well white opaque plate at a density of 5 × 10^3/well (CHO, ATCC, CCL-61) or 1 × 10^4/well (MCF7 (ATCC, HTB-22), SK-BR-3 (ATCC, HTB-30), SK-OV-3 (ATCC, HTB-77) or JIMT-1(Beyotime, C6453)). Cells were allowed to attach for 24 h at 37 °C and 5% CO2 in humidified atmosphere. Cells were then treated with serial dilutions of Tra-CAST, Tra-CAST-MMAE and SBA-MMAE or Tra-CASTi, Tra-CASTi-MMAE and DBCO-MMAE for 96 h (BT474, MCF7, SK-BR-3). Cell viability was determined using CellTiter Glo reagents (G7571) and was normalized to the control cells. Data was analyzed by Graphpad software, and the half-maximal effective concentration (EC50) value was calculated by fitting with the log(inhibitor) vs. response module.
Deconvolutedmass (Da) Deconvolutedmass (Da)
Supplementary Figure 37. ESI ion series/deconvolution MS spectra: reactions between […]
trastuzumab-CAST and 1C and SBA-MMAE. a. […]
(§2) Our selected nanobody binds to human serum albumin (HSA)7, The functional impact of inserting CAST to nanobody was evaluated by measuring the affinity to human serum albumin using Biolayer Interferometry at room temperature. […]
Cells were seeded in a 96-well white opaque plate at a density of 5 × 10^3/well (CHO) or 1 × 10^4/well (MCF7, SK-BR-3, SK-OV-3 or JIMT-1). […] Cell viability was determined using CellTiter Glo reagents (G7571) and was normalized to the control cells. Data was analyzed by […]

Data set [7] concerns SK-BR-3, SK-OV-3, JIMT-1 and MCF7 cells. Put plainly: Cell viability, all cells of Fig. 4d. It is filed as cell-based. Conditions: SK-BR-3, SK-OV-3, JIMT-1, MCF7; CellTiter Glo; n = 3 independent experiments. The protocol: as §1
10! […]
as §2
Cells were seeded in a 96-well white opaque plate at a density of 5 × 10^3/well (CHO) or 1 × 10^4/well (MCF7, SK-BR-3, SK-OV-3 or JIMT-1). […] Cell viability was determined using CellTiter Glo reagents (G7571) and was normalized to the control cells. Data was analyzed by Graphpad software, and the half-maximal effective concentration (EC50) value was calculated by fitting with the log(inhibitor) vs. response module. […]
For orientation: Cellular ATP, detected with luciferase, serves as a proxy for viable cell number.

With Phenyl-PEG2-SPG-FFKKDDHAA, the cleaved bond entry in data set [1] is “P-G, 3 hours; also recorded: F-K, 3 hours; also recorded: G-F, 3 hours”.

Turning to DLAAEIAKHCG, the fragment found entry in data set [2] is reported as “Maleimide hydrolysis byproduct, 1h”; in data set [3], “Maleimide hydrolysis byproduct, 1h; also recorded: SM:DLAAEIAKHCG, 1h”. For the substance Phenyl-PEG2-SPG-SKAQDDHAA, in data set [1], the cleaved bond entry is “G-S, 3 hours; also recorded: P-G, 3 hours”. As for Phenyl-PEG2-SPG-SHAQDDHAA, the cleaved bond result in data set [1] is reported as “G-S, 3 hours; also recorded: P-G, 3 hours”. As for Phenyl-PEG2-FFKKDDHAA, in data set [4], the cleaved bond result is given as “F-K, 18 h; also recorded: F-F, 48 h” and the fragment found entry is listed as “Phenyl-PEG2-FFKK, 48 h”.

In the case of Phenyl-PEG2-IAPDDHAA, in data set [4], the not cleaved entry is “remained intact following incubation in plasma for 144 h”. With Phenyl-PEG2-SPG-INDPDDHAA, in data set [1], the cleaved bond entry is on record as “P-G, 3 hours; also recorded: G-I, 20 hours”. For the substance Phenyl-PEG2-SPG-IKAQDDHAA, the cleaved bond result in data set [1] is reported as “I-K, 3 hours; also recorded: G-I, 3 hours; also recorded: A-Q, 3 hours; also recorded: P-G, 3 hours”.

On to Phenyl-PEG2-SPG-NKKDDHAA, for which the cleaved bond entry in data set [1] is reported as “G-N, 3 hours”. Take WCGIAPDDHAA [maleimide-WCGIAPDDHAA]: in data set [5], the fragment found result was “WCGIAPDDHAA, 22 h”. Regarding Phenyl-PEG2-SPG-NAPDDHAA, the cleaved bond result in data set [1] is reported as “G-N, 20 hours; also recorded: P-G, 20 hours”. Take “styrylboronic acid-Val-Cit-PAB-monomethyl auristatin E [SBA-MMAE]”: the “toxicity in all cell lines at the tested concentrations” value in data set [6] is “displayed toxicity and could not effectively distinguish HER2-negative MCF7 cells or HER2-positive SK-BR-3 cells”.

As for Phenyl-PEG2-SPG-IAPDDHAA, the cleaved bond entry in data set [1] is reported as “G-I, 3 hours; also recorded: D-D, 20 hours; also recorded: P-G, 20 hours”. Turning to “WCGIAPDDHAA [maleimide modified WCGIAPDDHAA]”, in data set [5], the fragment found result is recorded as “released free peptide WCGIAPDDHAA, 22 h; also recorded: maleimide hydrolysis byproducts, 22 h”.

For the substance “DBCO-PEG3-Glu-Val-Cit-PAB-MMAE [DBCO-MMAE]”, the “toxicity towards all cells” value in data set [7] was “minimal toxicity”. For Phenyl-PEG2-SPG-KAQDDHAA, in data set [1], the cleaved bond entry is listed as “P-G, 3 hours; also recorded: G-K, 3 hours”.

As to Phenyl-PEG2-SPG-NEQDDHAA, in data set [1], the cleaved bond result is “P-G, 3 hours; also recorded: G-N, 20 hours”. As to Phenyl-PEG2-SPG-MEQDDHAA, the cleaved bond result in data set [1] was “G-M, 3 hours; also recorded: P-G, 3 hours”. As to Phenyl-PEG2-SPG-LKQDDHAA, the cleaved bond entry in data set [1] is listed as “G-L, 3 hours”. In the case of Phenyl-PEG2-SPG-HAQDDHAA, the cleaved bond entry in data set [1] is “P-G, 3 hours”. For Phenyl-PEG2-SPG-IAQDDHAA, in data set [1], the cleaved bond entry was “G-I, 3 hours”. Turning to Phenyl-PEG2-SPG-NAQDDHAA, the cleaved bond result in data set [1] is recorded as “G-N, 3 hours; also recorded: P-G, 3 hours”.
